Measured values taken from paper PMC12298351, “Novel 3,19-(N-Phenyl-3-(4-fluorophenyl)-pyrazole) Acetal of Andrographolide Promotes Cell Cycle Arrest and Apoptosis in MDA-MB-231 Breast Cancer Cells” (Pharmaceuticals, 2025).

How the values were obtained:
[1] = system: DU-145; conditions: DU-145, Prostate
[2] = system: NCI/ADR-RES
[3] = system: MALME-3M; conditions: Melanoma
[4] = system: HL-60(TB)
[5] = system: UACC-62; conditions: UACC-62, Melanoma
[6] = system: OVCAR-8; conditions: OVCAR-8, Ovarian
[7] = system: A549/ATCC
[8] = system: SK-MEL-28; conditions: SK-MEL-28, Melanoma
[9] = system: 786-0; conditions: 786-0, Renal
[10] = system: CCRF-CEM
[11] = system: SNB-75; conditions: SNB-75, CNS
[12] = system: HOP-62
[13] = system: SF-539; conditions: SF-539, CNS
[14] = system: SR
[15] = system: HOP-92
[16] = DPPH radical scavenging assay; conditions: 25 µM test compound, 0.1 mM DPPH, acetonitrile, 30 min
Experimental: A stable free radical DPPH (2,2-Diphenyl-1-picrylhydrazyl) assay was employed to test the antioxidant activity of all the synthesized compounds. Concisely, 25 µM of the test compounds were dissolved in acetonitrile and combined with 0.1 mM of DPPH (in acetonitrile) in a 1:2 ratio (80 µL and 160 µL). Then, the mixture was left undisturbed in the dark for 30 min at room temperature. After 30 min, the absorbance of the solutions was instantly measured at 517 nm using a Varioskan Multiplate Reader (Thermo Fisher Scientific, Mumbai, India). Ascorbic acid (in acetonitrile) was used as the positive control, and andrographolide and isoandrogapholide (in acetonitrile) were used as the standards. The following equation was used to determine the DPPH radical scavenging activity:% Radical scavenging activity = (Ac − As)/Ac × 100 where Ac = the absorbance of the blank (DPPH solution), and As = the absorbance of the test samples

[17] = system: MCF7; conditions: MCF7, Breast
[18] = system: UO-31; conditions: UO-31, Renal
[19] = system: RXF 393; conditions: RXF 393, Renal
[20] = system: A498; conditions: A498, Renal
[21] = system: ACHN
[22] = system: NCI-H226
[23] = system: MDA-MB-435; conditions: MDA-MB-435, Melanoma
[24] = system: HS 578T
[25] = system: NCI-H460
[26] = system: HCT-116; type: cell-based; conditions: HCT-116, Colon
[27] = system: NCI-H522
[28] = read-out: 50% lethal concentration (LC50)
[29] = read-out: 50% lethal concentration (LC50), Leukemia

For `C=C1CCC2C3(C)COC(c4cn(-c5ccccc5)nc4-c4ccc(F)cc4)OC3CCC2(C)C1CC=C1C(=O)OCC1O` (stereo not shown) [1f, 3,19-(N-Phenyl-3-(4-fluorophenyl)-pyrazole) Acetal of Andrographolide], the GI50 [1] was 1.82 µM, the Total growth inhibition (TGI) [1] was 3.44 µM and the CC50 [1, 28] was 6.52 µM. For the same compound, the GI50 ([2]; Ovarian) was 1.54 µM, the Total growth inhibition (TGI) ([2]; Ovarian) was 3.57 µM and the CC50 ([2]; read-out: 50% lethal concentration (LC50), Ovarian) was 8.29 µM. The GI50 [3] was 1.58 µM, the Total growth inhibition (TGI) [3] was 3.02 µM and the GI50 ([4]; Leukemia) was 0.64 µM. For the same compound, the Total growth inhibition (TGI) ([4]; Leukemia) was 7.12 µM, the CC50 [4, 29] was over 100 µM and the GI50 [5] was 1.58 µM. The Total growth inhibition (TGI) [5] was 3.09 µM, the CC50 [5, 28] was 6.05 µM and the GI50 [6] was 1.48 µM. It also gave a Total growth inhibition (TGI) [6] of 2.95 µM, a CC50 [6, 28] of 5.86 µM and a Total growth inhibition (TGI) ([7]; Non-Small Cell Lung) of 5.92 µM. The GI50 ([7]; Non-Small-Cell Lung) was 2.14 µM, the CC50 ([7]; read-out: 50% lethal concentration (LC50), Non-Small Cell Lung) was 51.5 µM and the GI50 [8] was 1.66 µM. It also gave a Total growth inhibition (TGI) [8] of 3.12 µM, a CC50 [8, 28] of 5.86 µM and a GI50 [9] of 1.6 µM. For the same compound, the Total growth inhibition (TGI) [9] was 3.34 µM, the CC50 [9, 28] was 6.96 µM and the GI50 ([10]; Leukemia) was 0.4 µM. The CC50 [10, 29] was over 100 µM, the GI50 [11] was 1.66 µM and the Total growth inhibition (TGI) [11] was 3.09 µM. For the same compound, the CC50 [11, 28] was 5.86 µM, the Total growth inhibition (TGI) ([12]; HOP-62, Non-Small Cell Lung) was 3.36 µM and the GI50 ([12]; HOP-62, Non-Small-Cell Lung) was 1.62 µM. For the same compound, the CC50 ([12]; read-out: 50% lethal concentration (LC50), HOP-62, Non-Small Cell Lung) was 6.95 µM, the GI50 [13] was 1.77 µM and the Total growth inhibition (TGI) [13] was 3.16 µM. The CC50 [13, 28] was 5.65 µM, the GI50 ([14]; Leukemia) was 1.7 µM and the Total growth inhibition (TGI) ([14]; Leukemia) was 7.33 µM. It also gave a CC50 [14, 29] of over 100 µM, a Total growth inhibition (TGI) ([15]; HOP-92, Non-Small Cell Lung) of 2.73 µM and a GI50 ([15]; HOP-92, Non-Small-Cell Lung) of 1.29 µM. The CC50 ([15]; read-out: 50% lethal concentration (LC50), HOP-92, Non-Small Cell Lung) was 5.78 µM, the “% DPPH radical scavenging activity” value [16] was 58.15% and the GI50 [17] was 1.43 µM. For the same compound, the Total growth inhibition (TGI) [17] was 4.13 µM, the CC50 [17, 28] was 63.1 µM and the GI50 [18] was 1.6 µM. For the same compound, the Total growth inhibition (TGI) [18] was 3.34 µM, the CC50 [18, 28] was 5.14 µM and the GI50 [19] was 1.6 µM. It also gave a Total growth inhibition (TGI) [19] of 3.04 µM, a CC50 [19, 28] of 5.78 µM and a GI50 [20] of 3.31 µM. The Total growth inhibition (TGI) [20] was 11.5 µM, the CC50 [20, 28] was 38.3 µM and the GI50 ([21]; Renal) was 1.66 µM. The Total growth inhibition (TGI) ([21]; Renal) was 3.11 µM, the CC50 ([21]; read-out: 50% lethal concentration (LC50), Renal) was 5.82 µM and the Total growth inhibition (TGI) ([22]; NCI-H226, Non-Small Cell Lung) was 2.94 µM. For the same compound, the GI50 ([22]; NCI-H226, Non-Small-Cell Lung) was 1.51 µM, the CC50 ([22]; read-out: 50% lethal concentration (LC50), NCI-H226, Non-Small Cell Lung) was 5.75 µM and the GI50 [23] was 1.68 µM. It also gave a Total growth inhibition (TGI) [23] of 3.27 µM, a CC50 [23, 28] of 6.38 µM and a GI50 ([24]; Breast) of 1.51 µM. It also gave a Total growth inhibition (TGI) ([24]; Breast) of 2.94 µM, a CC50 ([24]; read-out: 50% lethal concentration (LC50), Breast) of 5.72 µM and a Total growth inhibition (TGI) ([25]; NCI-H460, Non-Small Cell Lung) of 3.33 µM. It also gave a GI50 ([25]; NCI-H460, Non-Small-Cell Lung) of 1.69 µM, a CC50 ([25]; read-out: 50% lethal concentration (LC50), NCI-H460, Non-Small Cell Lung) of 6.57 µM and a GI50 [26] of 0.39 µM. The Total growth inhibition (TGI) [26] was 1.18 µM, the Total growth inhibition (TGI) ([27]; NCI-H522, Non-Small Cell Lung) was 3.82 µM and the GI50 ([27]; NCI-H522, Non-Small-Cell Lung) was 1.95 µM. For the same compound, the CC50 ([27]; read-out: 50% lethal concentration (LC50), NCI-H522, Non-Small Cell Lung) was 7.48 µM.
